From patent publication US6458835B2, “Method of inhibiting or treating chemotherapy-induced hair loss” (Bristol-Myers Squibb Company, priority 1997, dated 2002)

Experiments:
[1] = tested on: C3H mice; experiment: Hair growth (hair follicle stimulation) in C3H mouse model, topical application; format: in vivo; conditions: for percent of animals showing hair follicle stimulation / time of onset of follicle stimulation: 2% solution topical 1x daily; for time of onset of follicle stimulation: male C3H mice, 5 days per week
Source text: The two enantiomers were compared topically for hair growth in C3H mice.
The C3H mouse is a useful model for studying hair growth. Its usefulness rests with the fact that skin pigmentation of this animal is provided by the melanocytes of the hair follicle and not the epidermis. In the telogen or the resting phase of the hair follicle, the skin is pink. In the earliest phase of anagen or the growth phase, there is sudden graying of the skin and as the anagen phase progresses the skin becomes darker in color. In this study, visual observation was used as an in vivo assay of anagen induction. Furthermore as anagen develops, the skin thickness increases from a thin telogen skin to a measurably thickened anagen skin. Thus, recording the skin color and microscopic thickness of skin from these mice offers a sensitive, quantifiable and convenient method of assessing the phases of hair growth.
Groups of 20, six to seven week old male C3H mice with hair follicles in the resting phase of hair growth were used. At this stage in their life, the hair follicles remain in the telogen phase for up to 30 days or longer. This provides an adequate window of time to screen drugs. […] This stimulation is manifested by the shortening of the telogen phase of the hair follicle cycle.
Animals were anesthetized with ketamine/rompun (100 mg/Kg and 12 mg/Kg) IP and the hair over a defined dorsal area were closely clipped.
The vehicle employed was ethanol/propylene glycol/water, 60/30/10. Treatment was continued for at least 4-5 weeks.
Animals were observed daily for side effects and changes to the test sites. All observations were documented. Test sites were graded weekly for changes in skin color and hair growth. In this study drug effects were evaluated using the visual observation of skin changing from pink to gray and resulting in hair growth.

[2] = Vasorelaxant potency

| melting point [°C] | IC50 [2] [nM] | SMILES | percent of animals showing hair follicle stimulation ([1]; by day 11 of treatment) [%] | percent of animals showing hair follicle stimulation ([1]; by day 14) [%] | percent of animals showing hair follicle stimulation ([1]; by day 28) [%] | time of onset of follicle stimulation [1] [days] | onset of action compared to the corresponding enantiomer ([1]; C3H mice, versus (S)-enantiomer) | hair growth promoting ability relative to the (S)-enantiomer ([1]; producing hair growth within 11 days of treatment) [times] | incidence of hair follicle stimulation compared to the other enantiomer ([1]; throughout the treatment period, versus Example 2-(S)-enantiomer) |
| --- | --- | --- | --- | --- | --- | --- | --- | --- | --- |
| 158 to 159 | 157 ± 35 | C[C@H](NC(=NC#N)Nc1ccc(C#N)cc1)C(C)(C)C [Example 2, (S)-4-[[(Cyanoimino)[(1,2,2-trimethylpropyl)amino]-methyl]amino]benzonitrile] | 5 | 25 | 65 | 11 | – | – | – |
| 159 to 160 | 47 ± 17 | C[C@@H](NC(=NC#N)Nc1ccc(C#N)cc1)C(C)(C)C [Example 1, (R)-4-[[(Cyanoimino)[(1,2,2-trimethylpropyl)amino]-methyl]amino]benzonitrile] | 40 | 50 | 85 | 7 | faster onset of action | 8 | higher incidence of hair follicle stimulation |
